Experimental findings from ChEMBL document CHEMBL1201862, “PubChem BioAssay data set” (2004) are described below.

Some test systems named below: SK-MEL-2; CAKI-1; HOP-92; CCRF-CEM; NCI-H226; A549; TK-10; SF-295; OVCAR-8; SF-539; SNB-19; NCI-H23; U-251; OVCAR-5; LOX IMVI; ACHN; IGROV-1; EKVX; OVCAR-4; HCT-116.
Assay in all cases: DTP human tumour cell line panel, 48 h

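Protocol summary: plate cells (96-well), add compound at 5 concentrations, incubate 48 h, interpolate endpoints linearly. GI50 is the concentration that inhibits growth by half.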 Active and inactive are the calls of the source. No stated cut-off is given here; in the data, active = GI50 up to about 1.1 µM and inactive = higher.

On to `Cc1ccc(/N=N/C(=N\NC(=O)c2ccc(C)cc2)c2ccc(N(CCC#N)CCC#N)cc2C)cc1`, for which the GI50 is 20.5 µM (inactive) with SK-MEL-2; 67 µM (inactive) with CAKI-1; 51.3 µM (inactive) with HOP-92; 49.4 µM (inactive) in the assay on CCRF-CEM; 20.7 µM (inactive) with NCI-H226; 34.5 µM (inactive) in the assay on A549. In addition, the GI50 in the assay on TK-10 was 45.5 µM (inactive); with SF-295 it was 38.4 µM (inactive); in the assay on OVCAR-8, 17.7 µM (inactive); in the assay on SF-539, 13.7 µM (inactive); in the assay on SNB-19 it was > 100 µM (inactive); in the assay on NCI-H23 it was 35.3 µM (inactive). Besides, the GI50 in the assay on U-251 is 14.8 µM (inactive); with OVCAR-5 it was 50.5 µM (inactive); with LOX IMVI, 35.7 µM (inactive); in the assay with ACHN it was 46.7 µM (inactive); in the assay on IGROV-1 it was 13.4 µM (inactive); with EKVX, 43 µM (inactive). The GI50 in the assay with OVCAR-4 is 47.1 µM (inactive).

Take `O=C1c2ccccc2C(=O)N1/N=C1/SC(=N\c2ccccc2)/C(=N/c2ccccc2)N1c1ccccc1`: the GI50 in the assay on SK-MEL-2 was > 55.2 µM (inactive); in the assay on HCT-116, 38.6 µM (inactive); in the assay with CAKI-1 it was > 100 µM (inactive); in the assay on HOP-92, > 27.9 µM (inactive); in the assay on CCRF-CEM, > 51.3 µM (inactive); in the assay with NCI-H226 it was > 71.3 µM (inactive). Moreover, the GI50 in the assay with A549 was > 21 µM (inactive); with TK-10, > 58.5 µM (inactive); with SF-295 it was 26.4 µM (inactive); with OVCAR-8, 40.1 µM (inactive); in the assay on SF-539, 33.2 µM (inactive); in the assay on SNB-19, > 90.4 µM (inactive). Further, the GI50 in the assay on NCI-H23 was > 46.8 µM (inactive); in the assay on U-251, 24.9 µM (inactive); in the assay with OVCAR-5, > 100 µM (inactive); in the assay on LOX IMVI, > 100 µM (inactive); with ACHN, > 66.4 µM (inactive); in the assay with IGROV-1, > 78.7 µM (inactive). The results for the GI50 in the assay with EKVX and in the assay on OVCAR-4 were > 76.9 µM (inactive) and > 100 µM (inactive), respectively.

Regarding `COC(=O)C1=C(\c2ccccc2)c2ccccc2C(=O)N(C2CCCCC2)/C=C\1`, the GI50 is 12.9 µM (inactive) with SK-MEL-2; 19.4 µM (inactive) in the assay on HCT-116; 20.9 µM (inactive) with CAKI-1; 14.9 µM (inactive) in the assay with HOP-92; 12 µM (inactive) in the assay with CCRF-CEM; 18.2 µM (inactive) with NCI-H226. Further, the GI50 in the assay with A549 was 16 µM (inactive); with TK-10, 41.3 µM (inactive); in the assay on SF-295, 28 µM (inactive); with OVCAR-8, 38.9 µM (inactive); in the assay with SF-539, 24 µM (inactive); with SNB-19 it was 29 µM (inactive). In addition, the GI50 is 17.1 µM (inactive) with NCI-H23; 21 µM (inactive) with U-251; 72.9 µM (inactive) in the assay on OVCAR-5; 14.2 µM (inactive) in the assay with LOX IMVI; 15.6 µM (inactive) in the assay with ACHN; 25.8 µM (inactive) with IGROV-1. In addition, the GI50 was 52.6 µM (inactive) in the assay on EKVX and 27.7 µM (inactive) with OVCAR-4.

Turning to `O=C(N/N=C/c1ccccc1)c1c(F)c(F)c(F)c(F)c1F`, the GI50 with SK-MEL-2 is > 100 µM (inactive); with HCT-116 it was 56 µM (inactive); in the assay on CAKI-1, > 100 µM (inactive); in the assay with HOP-92 it was 79.6 µM (inactive); with CCRF-CEM, > 100 µM (inactive); with NCI-H226, > 100 µM (inactive). Moreover, the GI50 in the assay with A549 was > 100 µM (inactive); with TK-10 it was > 100 µM (inactive); in the assay with SF-295 it was > 100 µM (inactive); with OVCAR-8, > 100 µM (inactive); with SF-539, 67 µM (inactive); with SNB-19, > 100 µM (inactive). Also, the GI50 in the assay on NCI-H23, in the assay with U-251, with OVCAR-5, in the assay with LOX IMVI, in the assay on ACHN and in the assay on IGROV-1 was > 100 µM (inactive) in each case. In addition, the GI50 in the assay with EKVX and in the assay with OVCAR-4 was > 100 µM (inactive) throughout.

For `Cc1ccc(NC(=O)C(Cc2c[nH]c3ccccc23)NC(=O)Oc2ccccc2)cc1C` (stereo not given), the GI50 was 85.9 µM (inactive) with SK-MEL-2; 61.5 µM (inactive) in the assay with HCT-116; 53 µM (inactive) in the assay with CAKI-1; 27.7 µM (inactive) with HOP-92; 35.1 µM (inactive) with CCRF-CEM; 73.1 µM (inactive) in the assay with NCI-H226. Also, the GI50 with A549 was 66.4 µM (inactive); in the assay with TK-10, 0.728 µM (active); in the assay with SF-295 it was > 100 µM (inactive); with OVCAR-8 it was 57.5 µM (inactive); in the assay with SF-539 it was > 100 µM (inactive); in the assay on SNB-19, > 100 µM (inactive). The GI50 with NCI-H23 was > 100 µM (inactive); in the assay on U-251, 80.2 µM (inactive); in the assay on OVCAR-5, > 100 µM (inactive); with LOX IMVI it was 47.9 µM (inactive); in the assay with ACHN, 84.3 µM (inactive); in the assay with IGROV-1, 30.5 µM (inactive). Further, the GI50 is 59.7 µM (inactive) in the assay on EKVX and 44.3 µM (inactive) in the assay on OVCAR-4.

In the case of `CCOC(=O)c1c(C)n(-c2ccc(C)cc2)c(=O)c2ccccc2c(=O)c2c(=O)ccc(=O)c1=2`, the GI50 in the assay with SK-MEL-2 was 27 µM (inactive); in the assay with HCT-116, 17.2 µM (inactive); with CAKI-1, 14.5 µM (inactive); in the assay with HOP-92, 16.2 µM (inactive); with CCRF-CEM it was 6.34 µM (inactive); with NCI-H226, 18.2 µM (inactive). The GI50 with A549 was 20.2 µM (inactive); in the assay with TK-10, 15.5 µM (inactive); in the assay on OVCAR-8, 16.2 µM (inactive); with SF-539 it was 21.9 µM (inactive); with SNB-19 it was 32.2 µM (inactive); in the assay with NCI-H23 it was 15.5 µM (inactive). Moreover, the GI50 with U-251 is 19.4 µM (inactive); in the assay on OVCAR-5 it was 28.6 µM (inactive); in the assay with LOX IMVI it was 14.7 µM (inactive); in the assay on ACHN it was 13.4 µM (inactive); in the assay on IGROV-1 it was 37.5 µM (inactive); in the assay on EKVX, 21.6 µM (inactive). For the same compound, the GI50 with OVCAR-4 was 21.4 µM (inactive).

For the compound `CC(C)=CC1(C)/C(=N\O)C(C)(CC(C)C)C(=O)N1O` (stereo not given), the GI50 in the assay on SK-MEL-2, with HCT-116, in the assay with CAKI-1, with HOP-92, in the assay on CCRF-CEM and in the assay on NCI-H226 was > 100 µM (inactive) in each case. Also, the GI50 with A549, in the assay with TK-10, in the assay with SF-295, in the assay on OVCAR-8, in the assay on SF-539 and with SNB-19 was > 100 µM (inactive) each time. Further, the GI50 with NCI-H23, in the assay on U-251, with OVCAR-5, with LOX IMVI, with ACHN and with IGROV-1 was > 100 µM (inactive) each time. The GI50 in the assay on EKVX and in the assay with OVCAR-4 was > 100 µM (inactive) in each case.

`C/C=C/C1=CC(=O)C(O)C1O` (stereo not given): the GI50 with SK-MEL-2 is 36.5 µM (inactive); in the assay with HCT-116, 26.2 µM (inactive); in the assay on CAKI-1, 14.5 µM (inactive); in the assay on HOP-92, 27.2 µM (inactive); in the assay with CCRF-CEM it was 22.7 µM (inactive); in the assay with NCI-H226, 24.1 µM (inactive). Besides, the GI50 in the assay with A549 is 29 µM (inactive); in the assay on SF-295 it was 44.7 µM (inactive); in the assay on OVCAR-8, 24.8 µM (inactive); in the assay with SF-539, 23.9 µM (inactive); in the assay on SNB-19, 37.2 µM (inactive); in the assay on NCI-H23, 25.9 µM (inactive). Further, the GI50 with U-251 was 44.8 µM (inactive); in the assay on OVCAR-5, 39.7 µM (inactive); with LOX IMVI, 16.5 µM (inactive); with IGROV-1 it was 35.6 µM (inactive); with EKVX, 44.6 µM (inactive); with OVCAR-4, 37.1 µM (inactive).

In the case of `O=C(NC1C=CCC2C(=O)N(c3ccccc3)C(=O)C12)OCc1ccccc1` (stereo not given), the GI50 in the assay on SK-MEL-2 is 57.7 µM (inactive); with HCT-116, > 100 µM (inactive); in the assay with CAKI-1 it was > 100 µM (inactive); in the assay on HOP-92 it was > 100 µM (inactive); in the assay with CCRF-CEM, > 100 µM (inactive); in the assay with NCI-H226, > 100 µM (inactive). For the same compound, the GI50 in the assay with A549, with TK-10, with SF-295, in the assay on OVCAR-8, in the assay with SF-539 and in the assay on SNB-19 was > 100 µM (inactive) in each case. Moreover, the GI50 with NCI-H23 was > 100 µM (inactive); in the assay on U-251, > 100 µM (inactive); in the assay on OVCAR-5, 97.3 µM (inactive); in the assay on LOX IMVI, > 100 µM (inactive); in the assay on ACHN it was > 100 µM (inactive); in the assay on IGROV-1 it was > 100 µM (inactive). Further, the GI50 in the assay with EKVX and with OVCAR-4 was > 100 µM (inactive) throughout.

With `Cc1cc2cc3c(C)cc(=O)oc3c(C)c2o1` [TRIOXSALEN], the GI50 with SK-MEL-2, in the assay on HCT-116, in the assay on CAKI-1, with HOP-92, in the assay with CCRF-CEM and with NCI-H226 was > 100 µM (inactive) throughout. In addition, the GI50 in the assay on A549, in the assay with SF-295, in the assay on OVCAR-8, in the assay on SF-539, in the assay on SNB-19 and with NCI-H23 was > 100 µM (inactive) throughout. In addition, the GI50 in the assay with U-251 was > 100 µM (inactive); with OVCAR-5 it was > 100 µM (inactive); in the assay with LOX IMVI it was > 100 µM (inactive); in the assay on ACHN, > 100 µM (inactive); with IGROV-1, > 100 µM (inactive); in the assay with EKVX it was 90.6 µM (inactive). For the same compound, the GI50 with OVCAR-4 was > 100 µM (inactive).
